Source: patent publication US20160220569A1, “CDK4/6 Inhibitor Dosage Formulations For The Protection Of Hematopoietic Stem And Progenitor Cells During Chemotherapy” (G1 Therapeutics, Inc., priority 2015, published 2016)
Where two headings read alike, the source gives them in different places.

Assay: Single escalating dose IV infusion pharmacokinetics in healthy volunteers (noncompartmental)
Type: in vivo, human
Conditions: human, plasma; for concentration at 24.5 h: read-out: concentration at 24.5 hours after the start of infusion; for concentration at 12.5 h: Time 12.50 h
Experimental: Forty-five subjects have enrolled in the study.
Analysis of plasma concentration versus time data for calculation of standard pharmacokinetic (PK) parameters following intravenous infusion administration was conducted using Phoenix WinNonlin version 6.3 using a nominal infusion duration and scheduled blood sampling times. Random subject numbers were assigned by the bioanalytical laboratory to retain the blind.
(§1) Analysis of plasma concentration versus time data for calculation of standard pharmacokinetic (PK) parameters following intravenous infusion administration was conducted using Phoenix WinNonlin version 6.3 using a nominal infusion duration and scheduled blood sampling times.
as §1

[1] = both sexes, iv, 48 mg/m2, Cohort 4, 48 mg/m^2 IV, r6-8=Subjects 1-3,r10=Mean,r12=Min,r13=Median,r14=Max,r16=Geometric Mean
[2] = both sexes, iv, 48 mg/m^2, Compound 1 Concentration, Cohort 4, 48 mg/m^2 IV, r7-9=Subjects 1-3,r11=Mean,r13=Min,r14=Median,r15=Max,r17=Geometric Mean
[3] = both sexes, iv, 96 mg/m^2, Cohort 5, 96 mg/m^2, 30-minute IV infusion, noncompartmental, subjects 1-6, Mean, Min, Median, Max, Geometric Mean
[4] = both sexes, iv, 96 mg/m^2, Compound 1 Concentration, Cohort 5, 96 mg/m^2 IV, r7-12=Subjects 1-6,r14=Mean,r16=Min,r17=Median,r18=Max,r20=Geometric Mean

Q: What does the source list for `CN1CCN(c2ccc(Nc3ncc4cc5n(c4n3)C3(CCCCC3)CNC5=O)nc2)CC1` [Compound 1, 2′-((5-(4-methylpiperazin-1-yl)pyridin-2-yl)amino)-7′,8′-dihydro-6′H-spiro[cyclohexane-1,9′-pyrazino[1′,2′:1,5]pyrrolo[2,3-d]pyrimidin]-6′-one]?
A: Cmax (both sexes, iv, 48 mg/m2, Cohort 4, 48 mg/m^2 IV, mean, read-out: Cmax averaged): 224 ng/mL; Tmax (both sexes, iv, 48 mg/m2, Cohort 4, 48 mg/m^2 IV, median, read-out: median Tmax): 0.5 h; AUC(0-t) [1]: 453 ng·h/mL; MRT inf [1]: 8.08 h; AUC(0-inf) (both sexes, iv, 48 mg/m2, Cohort 4, 48 mg/m^2 IV, r6-8=Subjects 1-3,r10=Mean,r12=Min,r13=Median,r14=Max,r16=Geometric Mean, read-out: AUCinf): 499 ng·h/mL; Cmax (both sexes, iv, 48 mg/m2, Cohort 4, 48 mg/m^2 IV, r6-8=Subjects 1-3,r10=Mean,r12=Min,r13=Median,r14=Max,r16=Geometric Mean, read-out: Cmax): 224 ng/mL; Tmax (both sexes, iv, 48 mg/m2, Cohort 4, 48 mg/m^2 IV, r6-8=Subjects 1-3,r10=Mean,r12=Min,r13=Median,r14=Max,r16=Geometric Mean, read-out: Tmax): 0.417 h; half-life (both sexes, iv, 48 mg/m2, Cohort 4, 48 mg/m^2 IV, range over subjects, read-out: Half-lives range): 7.24 to 10.9 h; concentration at 72 h (both sexes, iv, 48 mg/m^2, Cohort 4, 48 mg/m^2 IV, one subject measurable, read-out: concentration at 72 hours after the EOI): 0.76 ng/mL; concentration at 24.5 h (both sexes, iv, 48 mg/m^2, Cohort 4, 48 mg/m^2 IV, range over 3 subjects): 2.08 to 4.66 ng/mL; concentration at 0.25 h [2]: 192 ng/mL; concentration at 0.75 h (both sexes, iv, 48 mg/m^2, Compound 1 Concentration, Cohort 4, 48 mg/m^2 IV, Time 0.75 h, r7-9=Subjects 1-3,r11=Mean,r13=Min,r14=Median,r15=Max,r17=Geometric Mean): 107 ng/mL; concentration at 1 h (both sexes, iv, 48 mg/m^2, Compound 1 Concentration, Cohort 4, 48 mg/m^2 IV, Time 1.00 h, r7-9=Subjects 1-3,r11=Mean,r13=Min,r14=Median,r15=Max,r17=Geometric Mean): 81.9 ng/mL; concentration at 2.5 h (both sexes, iv, 48 mg/m^2, Compound 1 Concentration, Cohort 4, 48 mg/m^2 IV, Time 2.50 h, r7-9=Subjects 1-3,r11=Mean,r13=Min,r14=Median,r15=Max,r17=Geometric Mean): 34.2 ng/mL; concentration at 3.5 h (both sexes, iv, 48 mg/m^2, Compound 1 Concentration, Cohort 4, 48 mg/m^2 IV, Time 3.50 h, r7-9=Subjects 1-3,r11=Mean,r13=Min,r14=Median,r15=Max,r17=Geometric Mean): 27.6 ng/mL; concentration at 6.5 h (both sexes, iv, 48 mg/m^2, Compound 1 Concentration, Cohort 4, 48 mg/m^2 IV, Time 6.50 h, r7-9=Subjects 1-3,r11=Mean,r13=Min,r14=Median,r15=Max,r17=Geometric Mean): 17 ng/mL; concentration at 8.5 h (both sexes, iv, 48 mg/m^2, Compound 1 Concentration, Cohort 4, 48 mg/m^2 IV, Time 8.50 h, r7-9=Subjects 1-3,r11=Mean,r13=Min,r14=Median,r15=Max,r17=Geometric Mean): 12.1 ng/mL; concentration at 12.5 h [2]: 8.36 ng/mL; AUC(0-inf) (both sexes, iv, 96 mg/m2, Cohort 5, 96 mg/m^2 IV, mean, read-out: AUCinf averaged): 1320 ng·h/mL; Cmax (both sexes, iv, 96 mg/m2, Cohort 5, 96 mg/m^2 IV, mean, read-out: Cmax averaged): 900 ng/mL; half-life (both sexes, iv, 96 mg/m2, Cohort 5, 96 mg/m^2 IV, mean, read-out: Half-lives averaged (converted)): 8.62 h; Tmax (both sexes, iv, 96 mg/m2, Cohort 5, 96 mg/m^2 IV, median, read-out: median Tmax): 0.375 h; half-life (both sexes, iv, 96 mg/m2, Cohort 5, 96 mg/m^2 IV, range over subjects, read-out: Half-lives range): 6.97 to 10.9 h; AUC(0-t) [3]: 1530 ng·h/mL; MRT inf [3]: 4.36 h; AUC(0-inf) (both sexes, iv, 96 mg/m^2, Cohort 5, 96 mg/m^2, 30-minute IV infusion, noncompartmental, subjects 1-6, Mean, Min, Median, Max, Geometric Mean, read-out: AUCinf): 1590 ng·h/mL; Cmax (both sexes, iv, 96 mg/m^2, Cohort 5, 96 mg/m^2, 30-minute IV infusion, noncompartmental, subjects 1-6, Mean, Min, Median, Max, Geometric Mean, read-out: Cmax): 949 ng/mL; Tmax (both sexes, iv, 96 mg/m^2, Cohort 5, 96 mg/m^2, 30-minute IV infusion, noncompartmental, subjects 1-6, Mean, Min, Median, Max, Geometric Mean, read-out: Tmax): 0.5 h; half-life (both sexes, iv, 96 mg/m^2, Cohort 5, 96 mg/m^2, 30-minute IV infusion, noncompartmental, subjects 1-6, Mean, Min, Median, Max, Geometric Mean, read-out: t½ (converted)): 7.11 h; concentration at 24.5 h (both sexes, iv, 96 mg/m^2, Cohort 5, 96 mg/m^2 IV, range over subjects): 3.96 to 9.59 ng/mL; concentration at 0.25 h [4]: 843 ng/mL; concentration at 0.5 h (both sexes, iv, 96 mg/m^2, Compound 1 Concentration, Cohort 5, 96 mg/m^2 IV, Time 0.50 h, r7-12=Subjects 1-6,r14=Mean,r16=Min,r17=Median,r18=Max,r20=Geometric Mean): 992 ng/mL; concentration at 12.5 h [4]: 11.9 ng/mL; Tmax (both, intravenous, […]2, Cohort 6, […]^2, 0-24.5 hr data, noncompartmental, subjects 1-6, Mean, Min, Median, Max, Geometric Mean, read-out: Tmax): 0.5 h; Tmax (both, intravenous, […]2, Cohort 6, […]^2, 0-[…] data, noncompartmental, subjects 1-6, Mean, Min, Median, Max, Geometric Mean, read-out: Tmax): 0.5 h; half-life (both, intravenous, […]2, Cohort 7, […]^2, N = 12, Geo. Mean, read-out: t1/2 (converted)): 14.5 h; Tmax (both, intravenous, […]2, Cohort 7, […]^2, N = 12, Geo. Mean, read-out: tmax): 0.36 h; half-life (both, intravenous, […]2, Cohort 7, […]^2, N = 12, min-max, read-out: t1/2 (converted)): 11.9 to 17.3 h; Tmax (both, intravenous, […]2, Cohort 7, […]^2, N = 12, min-max, read-out: tmax): 0.25 to 0.48 h; half-life (both, intravenous, […]^2, Cohort 6 + 7, […]^2, N = 18, Geo. Mean, read-out: t1/2 (converted)): 14.5 h; Tmax (both, intravenous, […]^2, Cohort 6 + 7, […]^2, N = 18, Geo. Mean, read-out: tmax): 0.37 h; half-life (both, intravenous, […]^2, Cohort 6 + 7, […]^2, N = 18, min-max, read-out: t1/2 (converted)): 11.9 to 17.3 h; Tmax (both, intravenous, […]^2, Cohort 6 + 7, […]^2, N = 18, min-max, read-out: tmax): 0.25 to 0.48 h; half-life (both, iv, […]2, Cohort 6, […]^2 IV, 0-24.5 hr data, mean, read-out: Half-lives averaged (converted)): 7.87 h; half-life (both, iv, […]2, Cohort 6, […]^2 IV, 0-24.5 hr data, range over subjects, read-out: Half-lives range): 5.78 to 8.79 h; half-life (both, iv, […]2, Cohort 6, […]^2 IV, 0-[…] data, mean, read-out: Half-lives averaging (converted)): 18 h; half-life (both, iv, […]2, Cohort 6, […]^2 IV, 0-[…] data, range over subjects, read-out: Half-lives range): 16.9 to 20.1 h; Tmax (both, iv, […]2, Cohort 6, […]^2 IV, median, read-out: median Tmax): 0.5 h
